# Where two headings read alike, the source gives them in different places.
# System: wild‐type BCG cells
# Format: cell-based, M. bovis BCG
# Details: for Mean_Ratio GDI5755_3d: DMSO_3d: Table S6; for Mean Ratio: GDI5755_2d vs DMSO_2d; for Mean Ratio / Mean Ratio (GDI5755_2d vs DMSO_2d): up-regulated; for Mean_Ratio (GDI5755_3d vs DMSO_3d): down-regulated, 3 d; for Mean Ratio (GDI5755_2d vs DMSO_2d): 2d
smiles,measurement,setting,value
O=C(Oc1ccc(Cl)cc1)c1ccc(N2CCOCC2)c([N+](=O)[O-])c1 [GDI‐5755],Mean_Ratio GDI5755_3d: DMSO_3d,BCG_1101c Serine protease,1.4
same,Mean_Ratio GDI5755_3d: DMSO_3d,BCG_1189c HNH nuclease domain-containing protein,1.3
same,Mean_Ratio GDI5755_3d: DMSO_3d,BCG_1283 Probable serine protease htrA,1.3
same,Mean_Ratio GDI5755_3d: DMSO_3d,BCG_1324 Uncharacterized protein,1.3
same,Mean_Ratio GDI5755_3d: DMSO_3d,BCG_1333 Lipoprotein lprB,1.3
same,Mean_Ratio GDI5755_3d: DMSO_3d,BCG_1334 Lipoprotein lprC,1.3
same,Mean_Ratio GDI5755_3d: DMSO_3d,BCG_1438c Transferase,1.3
same,Mean_Ratio GDI5755_3d: DMSO_3d,BCG_1471c Probable triacylglyceride transporter,1.3
same,Mean_Ratio GDI5755_3d: DMSO_3d,BCG_1492 Conserved membrane protein,1.3
same,Mean_Ratio GDI5755_3d: DMSO_3d,BCG_1523 Fe-S cluster assembly protein SufD,1.3
same,Mean_Ratio GDI5755_3d: DMSO_3d,BCG_1532 Thioredoxin,1.3
same,Mean_Ratio GDI5755_3d: DMSO_3d,BCG_1543 UPF0353 protein,1.3
same,Mean_Ratio GDI5755_3d: DMSO_3d,BCG_1787 DUF4129 domain-containing protein,1.4
same,Mean_Ratio GDI5755_3d: DMSO_3d,BCG_1890c NADH dehydrogenase ndh,1.5
same,Mean_Ratio GDI5755_3d: DMSO_3d,BCG_1937 Thiamine-binding protein-containing protein,1.3
same,Mean_Ratio GDI5755_3d: DMSO_3d,BCG_1984 HNH nuclease domain-containing protein,1.3
same,Mean_Ratio GDI5755_3d: DMSO_3d,BCG_2183c Transcriptional regulator MraZ,1.3
same,Mean_Ratio GDI5755_3d: DMSO_3d,BCG_2241c Serine protease Hip1,1.3
same,Mean_Ratio GDI5755_3d: DMSO_3d,BCG_2351c Probable lipoprotein lppP,1.3
same,Mean_Ratio GDI5755_3d: DMSO_3d,BCG_2486c DSBA-like thioredoxin domain-containing protein,1.7
same,Mean_Ratio GDI5755_3d: DMSO_3d,BCG_2516c pyruvate dehydrogenase E1 component pdhB,1.3
same,Mean_Ratio GDI5755_3d: DMSO_3d,BCG_2656 Uncharacterized protein,1.4
same,Mean_Ratio GDI5755_3d: DMSO_3d,BCG_2721c DUF3039 domain-containing protein,1.4
same,Mean_Ratio GDI5755_3d: DMSO_3d,"BCG_2723 RNA polymerase sigma factor, sigB",1.3
same,Mean_Ratio GDI5755_3d: DMSO_3d,BCG_2934c Possible D-amino acid aminohydrolase,1.4
same,Mean_Ratio GDI5755_3d: DMSO_3d,BCG_3028 conserved lipoprotein lppZ,1.3
same,Mean_Ratio GDI5755_3d: DMSO_3d,BCG_3153c Diacylglycerol O-acyltransferase,1.4
same,Mean_Ratio GDI5755_3d: DMSO_3d,BCG_3164 Probable NADPH quinone oxidoreductase fadB4,1.2
same,Mean_Ratio GDI5755_3d: DMSO_3d,BCG_3165c Uncharacterized protein,1.3
same,Mean_Ratio GDI5755_3d: DMSO_3d,BCG_3185c Dioxygenase,2.2
same,Mean_Ratio GDI5755_3d: DMSO_3d,BCG_3269c Protein translocase subunit SecA 1,1.2
same,Mean_Ratio GDI5755_3d: DMSO_3d,BCG_3476 Probable dioxygenase,1.6
same,Mean_Ratio GDI5755_3d: DMSO_3d,BCG_3583 Acetoacetate decarboxylase,1.3
same,Mean_Ratio GDI5755_3d: DMSO_3d,BCG_3590 Rieske-type oxygenase,1.4
same,Mean_Ratio GDI5755_3d: DMSO_3d,BCG_3674c ATP-dependent zinc metalloprotease FtsH,1.3
same,Mean_Ratio GDI5755_3d: DMSO_3d,BCG_3709 Rv3651-like N-terminal domain-containing protein,1.3
same,Mean_Ratio GDI5755_3d: DMSO_3d,BCG_3824c Two-component transcriptional regulator TcrX,1.4
same,Mean_Ratio GDI5755_3d: DMSO_3d,BCG_3881 Uncharacterized protein,1.4
same,Mean_Ratio GDI5755_3d: DMSO_3d,BCG_3905c Glycerol phosphoryl diester phosphodiesterase glpQ1,1.3
same,"Mean_Ratio (GDI5755_2d vs DMSO_2d), protein L-serine dehydratase","iTRAQ protein abundance ratio, 2 d treatment vs DMSO, sheet down-regulated, Protein_ID A0A0H3M0L9, Pvalue 5.14E-04",0.80
same,"Mean_Ratio (GDI5755_2d vs DMSO_2d), protein Endonuclease NucS","iTRAQ protein abundance ratio, 2 d treatment vs DMSO, sheet down-regulated, Protein_ID A0A0H3M5R4, Pvalue 4.43E-04",0.80
same,"Mean_Ratio (GDI5755_2d vs DMSO_2d), protein Trehalose 2-sulfotransferase","iTRAQ protein abundance ratio, 2 d treatment vs DMSO, sheet down-regulated, Protein_ID A0A0H3M7Q0, Pvalue 1.60E-03",0.80
same,"Mean_Ratio (GDI5755_2d vs DMSO_2d), protein DUF3263 domain-containing protein","iTRAQ protein abundance ratio, 2 d treatment vs DMSO, sheet down-regulated, Protein_ID A0A0H3M274, Pvalue 5.23E-03",0.80
same,"Mean_Ratio (GDI5755_2d vs DMSO_2d), protein Translation initiation factor IF-3","iTRAQ protein abundance ratio, 2 d treatment vs DMSO, sheet down-regulated, Protein_ID A0A0H3MDG6, Pvalue 1.81E-05",0.80
same,"Mean_Ratio (GDI5755_2d vs DMSO_2d), protein Possible conserved membrane or exported protein","iTRAQ protein abundance ratio, 2 d treatment vs DMSO, sheet down-regulated, Protein_ID A0A0H3MDQ9, Pvalue 5.91E-05",0.80
same,"Mean_Ratio (GDI5755_2d vs DMSO_2d), protein Large ribosomal subunit protein uL22","iTRAQ protein abundance ratio, 2 d treatment vs DMSO, sheet down-regulated, Protein_ID A1KGI7, Pvalue 5.54E-04",0.80
same,"Mean_Ratio (GDI5755_2d vs DMSO_2d), protein ATP-dependent Clp protease ATP-binding subunit ClpX","iTRAQ protein abundance ratio, 2 d treatment vs DMSO, sheet down-regulated, Protein_ID A1KLF3, Pvalue 2.57E-03",0.80
same,Mean Ratio,protein A0A0G2Q9F2 Ribonuclease P protein component,1.26
same,Mean_Ratio (GDI5755_3d vs DMSO_3d),"protein A0A0G2Q9J9, BCG_3329c (Rv3300c), Pseudouridine synthase RsuA/RluA-like domain-containing protein",0.7
same,Mean_Ratio (GDI5755_3d vs DMSO_3d),"protein A0A0G2Q9N9, BCG_0021 (Rv3915), N-acetylmuramoyl-L-alanine amidase CwlM",0.7
same,Mean Ratio,protein A0A0H3M0K6 Probable conserved transmembrane protein,1.32
same,Mean Ratio,protein A0A0H3M0R3 Secreted antigen 85-c fbpC (85C),1.28
same,Mean Ratio (GDI5755_2d vs DMSO_2d),protein A0A0H3M1A8 Isoniazid inductible gene protein iniC,1.34
same,Mean_Ratio (GDI5755_3d vs DMSO_3d),"protein A0A0H3M1E3, BCG_0162 (Rv0128), Probable conserved transmembrane protein",0.7
same,Mean Ratio (GDI5755_2d vs DMSO_2d),protein A0A0H3M1F5 DUF427 domain-containing protein,1.39
same,Mean Ratio,protein A0A0H3M1G0 Possible conserved lipoprotein lpqK,1.28
same,Mean_Ratio (GDI5755_3d vs DMSO_3d),"protein A0A0H3M1I3, BCG_0204 (Rv0167), Conserved hypothetical integral membrane protein yrbE1A",0.7
same,Mean_Ratio (GDI5755_3d vs DMSO_3d),"protein A0A0H3M1V2, BCG_0591c (Rv0547c), Possible oxidoreductase",0.757
same,Mean Ratio,protein A0A0H3M1X4 Probable dehydrogenase/reductase,1.28
same,Mean Ratio,protein A0A0H3M1Z8 Isoniazid inductible gene protein iniA,1.28
same,Mean Ratio,protein A0A0H3M2A5 Carboxymuconolactone decarboxylase-like domain-containing protein,1.25
same,Mean Ratio,protein A0A0H3M2D4 Possible conserved transmembrane protein,1.26
same,Mean_Ratio (GDI5755_3d vs DMSO_3d),"protein A0A0H3M2J1, BCG_0913c (Rv0861c), DNA helicase",0.746
same,Mean_Ratio (GDI5755_3d vs DMSO_3d),"protein A0A0H3M2K9, BCG_0627 (Rv0582), Ribonuclease VapC",0.74
same,Mean_Ratio (GDI5755_3d vs DMSO_3d),"protein A0A0H3M2L9, BCG_0933 (Rv0881), Possible rRNA methyltransferase",0.7
same,Mean_Ratio (GDI5755_3d vs DMSO_3d),"protein A0A0H3M2M6, BCG_0648c (Rv0602c), Two component DNA binding/Transcriptional regulatory protein tcrA",0.7
